In patent US11453632B2, “1-phenyl-2-phenylethane derivative” (KAO CORPORATION, priority 2018, dated 2022):

Experiments:
ERα LBD = molecular target: T1, ERα LBD (Homo sapiens, UniProt P03372); assay: Ability to bind to ERα: pBIND-ERα LBD / GAL4 luciferase reporter in HEK293 cells; assay type: cell-based; set-up: key: firefly luciferase / Renilla luciferase luminescence ratio; details: negative control 0.00847035
T1 construct: host or cells: HEK293
T1 sequence (P03372 311-547 limits assumed): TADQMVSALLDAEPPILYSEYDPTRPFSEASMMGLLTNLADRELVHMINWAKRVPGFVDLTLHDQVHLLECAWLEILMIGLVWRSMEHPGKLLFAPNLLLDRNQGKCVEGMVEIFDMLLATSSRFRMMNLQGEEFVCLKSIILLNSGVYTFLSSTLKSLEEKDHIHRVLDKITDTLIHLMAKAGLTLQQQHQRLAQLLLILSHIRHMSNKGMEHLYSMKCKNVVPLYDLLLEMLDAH
Description: (§1) A human kidney-derived cell line HEK293 was cultured (37° C., 5% CO2) in Dulbecco's modified Eagle medium (hereinafter, abbreviated to DMEM) containing 10% (v/v) fetal bovine serum (FBS) and penicillin/streptomycin.
(§2) 2) Measurement of Binding Activity Against ERs
(§3) Specifically, HEK293 cells were inoculated at a cell density of 4.0×10^4 cells/well to a 96-well plate. After 12 hours therefrom, the medium was replaced with a culture solution (DMEM containing 5% (v/v) charcoal-treated serum). The cells were cotransfected with pBIND-ERα for the expression of ERα LBD or pBIND-ERβ for the expression of ERβ LBD (Promega Corp.) and pGL4.35[luc2P/9XGAL4UAS/Hygro](Promega Corp.) using Lipofectamine 2000 (Invitrogen Corp.) according to the protocol attached to the product. 24 hours after transfection, the medium was replaced with a culture solution containing a test sample, followed by culture for another 24 hours. The activity measurement of firefly luciferase (index for the ligand binding activity of ER) and Renilla reniformis luciferase (index for the transfection efficiency of the plasmids) was carried out using Dual-Glo™ Luciferase Assay System (Promega Corp.) according to the attached protocol. The luminescence intensity of the firefly luciferase was divided by the luminescence intensity of the Renilla reniformis luciferase to calculate a relative light unit (RLU).

ERβ LBD = molecular target: T2, ERβ LBD (Homo sapiens, UniProt Q92731); assay: Ability to bind to ERβ: pBIND-ERβ LBD / GAL4 luciferase reporter in HEK293 cells; assay type: cell-based; set-up: key: RLU = firefly luminescence / Renilla luminescence; details: negative control 0.0118997
T2 construct: host or cells: HEK293
T2 sequence (Q92731 264-498 limits assumed): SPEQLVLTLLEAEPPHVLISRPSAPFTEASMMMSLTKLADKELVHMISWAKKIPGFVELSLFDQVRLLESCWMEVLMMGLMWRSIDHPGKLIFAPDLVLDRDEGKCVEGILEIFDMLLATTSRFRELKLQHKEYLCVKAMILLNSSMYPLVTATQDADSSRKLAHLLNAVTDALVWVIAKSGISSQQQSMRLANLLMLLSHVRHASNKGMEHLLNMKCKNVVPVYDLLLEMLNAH
Description: This evaluation system is a system exploiting difference in the sequence of the ligand binding domain (LBD) between ERα and ERβ (J Endocrinol 163: 379-383 (1999)), and enables selective activation of ERβ to be evaluated by determining the binding of a ligand to LBD and the activation of ER.
as §1, §2
as §3, with “This measurement was carried out according to the method described in JP-B-5990058. Specifically,” for “Specifically,”

Row | Structure (SMILES) | relative light unit (RLU), ligand binding activity ERα (ERα LBD; 1 nM) | relative light unit (RLU), ligand binding activity ERα (ERα LBD; 10 nM) | relative light unit (RLU), ligand binding activity ERα (ERα LBD; 100 nM) | relative light unit (RLU), ligand binding activity ERβ (ERβ LBD; 0.01 nM) | relative light unit (RLU), ligand binding activity ERβ (ERβ LBD; 0.1 nM) | relative light unit (RLU), ligand binding activity ERβ (ERβ LBD; 1 nM) | relative light unit (RLU), ligand binding activity ERβ (ERβ LBD; 10 nM) | relative light unit (RLU), ligand binding activity ERβ (ERβ LBD; 100 nM) | relative light unit (RLU), ligand binding activity ERα (ERα LBD; 0.01 nM) | relative light unit (RLU), ligand binding activity ERα (ERα LBD; 0.1 nM)
1 | CC=CC(Cc1ccc(O)cc1)c1ccc(O)cc1 (centres unmarked) [Compound 5, 4,4′-(pent-3-ene-1,2-diyl)diphenol] | 0.006803 | 0.008307 | 0.319 | 0.01699 | 0.1395 | 0.9744 | 1.153 | 1.216 | – | –
2 | Oc1ccc(CC(c2ccc(O)cc2)c2cnco2)cc1 (centres unmarked) [Compound 13, 4,4′-(1-(oxazol-5-yl)ethane-1,2-diyl)diphenol] | 0.01285 | 0.01611 | 0.01431 | 0.01293 | 0.01887 | 0.02471 | 0.04313 | 0.8322 | 0.01362 | 0.006796
3 | Oc1ccc(CC(c2ccc(O)cc2)c2ccn[nH]2)cc1 (centres unmarked) [Compound 12, 4,4′-(1-(1H-pyrazol-5-yl)ethane-1,2-diyl)diphenol] | 0.01753 | 0.01191 | 0.008685 | 0.01836 | 0.01732 | 0.03073 | 0.02066 | 0.026 | 0.006803 | 0.02077
4 | O=C(NC(Cc1ccc(O)cc1)c1ccc(O)cc1)C(F)(F)F (centres unmarked) [Compound 10, N-(1,2-bis(4-hydroxyphenyl)ethyl)-2,2,2-trifluoroacetamide] | 0.008272 | 0.0163 | 0.01156 | – | – | 0.01539 | 0.0134 | 0.2211 | – | –
5 | Oc1ccc(CC(c2ccc(O)cc2)c2ncon2)cc1 (centres unmarked) [Compound 14, 4,4′-(1-(1,2,4-oxadiazol-3-yl)ethane-1,2-diyl)diphenol] | 0.02004 | 0.01493 | 0.02047 | 0.02708 | 0.02188 | 0.02069 | 0.08851 | 0.9946 | 0.01031 | 0.01495
6 | Oc1ccc(CC(c2ccc(O)cc2)C2CC2)cc1 (centres unmarked) [Compound 1, 4,4′-(1-cyclopropylethane-1,2-diyl)diphenol] | 0.01123 | 0.01001 | 0.03514 | – | – | 0.04726 | 0.7801 | 0.674 | – | –
7 | Oc1ccc(C(C=C(Cl)Cl)Cc2c(F)cc(O)cc2F)cc1 (centres unmarked) [Compound 18-Cl, 4-(4,4-dichloro-2-(4-hydroxyphenyl)but-3-en-1-yl)-3,5-difluorophenol] | 0.122 | 2.2626 | 3.229 | 0.07422 | 0.4259 | 1.819 | 1.997 | 2.261 | 0.0398 | 0.04255
8 | Oc1ccc(CC(c2ccc(O)cc2)c2cocn2)cc1 (centres unmarked) [Compound 16, 4,4′-(1-(oxazol-4-yl)ethane-1,2-diyl)diphenol] | 0.01714 | 0.0182 | 0.0245 | 0.0173 | 0.02216 | 0.01759 | 0.06729 | 0.8625 | 0.01424 | 0.01773
9 | Oc1ccc(CC(C=C(Cl)Cl)c2ccc(O)cc2F)c(F)c1 (centres unmarked) [Compound 17-Cl, 4,4′-(4,4-dichlorobut-3-ene-1,2-diyl)bis(3-fluorophenol)] | 0.05395 | 0.92 | 2.707 | 0.04108 | 0.116 | 1.22 | 1.682 | 2.029 | 0.03467 | 0.03125
10 | CCC(C)C(Cc1ccc(O)cc1)c1ccc(O)cc1 (centres unmarked) [Compound 6, 4,4′-(3-methylpentane-1,2-diyl)diphenol] | 0.008097 | 0.01098 | 0.01183 | – | – | 0.01046 | 0.02031 | 0.2041 | – | –
